# Results from paper PMC4457358, “Structure–activity studies in the development of a hydrazone based inhibitor of adipose-triglyceride lipase (ATGL)” (Bioorganic & Medicinal Chemistry, 2015).
# Entries after “also recorded” stand apart in the source; their conditions may differ.
# Columns and labels:
# lipoprotein lipase = test: LPL activity with purified recombinant LPL and triolein substrate; format: biochemical; details: 100 µM compound
# Procedure: The triolein (TO) substrate was prepared as described. In brief, 330 μM triolein (40,000 cpm/nmol) (GE Healthcare) was emulsified with 45 μM phosphatidylcholine/phosphatidylinositol (3:1) (Sigma) in 100 mM potassium phosphate buffer (pH 7.0) by sonication (Virsonic 475, Virtis) and was adjusted to 5% (w/v) fatty acid free bovine serum albumin (BSA, Sigma). 100 μL (20 μg protein) cell lysate or 2 μl purified recombinant LPL (Sigma–Aldrich) were incubated with 100 μL TO substrate in the presence or in the absence of inhibitors in a water bath for 1 h at 37 °C. After incubation, the reaction was terminated by adding 3.25 mL of methanol/chloroform/heptane (10:9:7) and 1 mL of 0.1 M potassium carbonate, 0.1 M boric acid (pH 10.5). After centrifugation (800 g, 15 min), the radioactivity in 1 mL of the upper phase was determined by liquid scintillation counting.
# (§1) Structure-activity studies in the development of a hydrazone based inhibitor of adipose-triglyceride lipase (ATGL)
# (§2) Nicole Mayer, Martina Schweiger, Michaela-Christina Melcher, Christian Fledelius, Rudolf Zechner, Robert Zimmermann and Rolf Breinbauer […]
# (§3) µM Inhibitor µM Inhibitor
# (§4) Fig. S1: Selectivity tests of 1a and 1h with white adipose tissue fat pads of wt, ATGL-ko, and […]
# Fig S2. LPL (left) and Monoglyceride hydrolase (MGH) (right) activities in the absence or presence of 100 µM compound 1h. […]
# murine ATGL = target: T1, murine ATGL (Mus musculus, UniProt Q8BJ56); test: Triglyceride hydrolase activity assay with COS7-cell lysate overexpressing recombinant murine ATGL, radiolabelled triolein substrate; format: biochemical; details: for inhibition at 200 µM: 1 h, ATGL-inhibition efficiency at 200 μM inhibitor, read-out: I200 (%); for IC50: COS7-cell lysate overexpressing murine ATGL;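 on all read-outs here: radioactivity from the triolein substrate quantified by liquid scintillation counting after phase separation, reflecting triglyceride hydrolase activity of murine ATGL in lysates of transfected COS-7 cells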
# T1 construct: expressed in transfected cells; host or cells: COS-7 (ATCC CRL-1651), transient transfection with Metafectene; crude lysate after 1000 x g spin
# T1 sequence (Q8BJ56 1-486): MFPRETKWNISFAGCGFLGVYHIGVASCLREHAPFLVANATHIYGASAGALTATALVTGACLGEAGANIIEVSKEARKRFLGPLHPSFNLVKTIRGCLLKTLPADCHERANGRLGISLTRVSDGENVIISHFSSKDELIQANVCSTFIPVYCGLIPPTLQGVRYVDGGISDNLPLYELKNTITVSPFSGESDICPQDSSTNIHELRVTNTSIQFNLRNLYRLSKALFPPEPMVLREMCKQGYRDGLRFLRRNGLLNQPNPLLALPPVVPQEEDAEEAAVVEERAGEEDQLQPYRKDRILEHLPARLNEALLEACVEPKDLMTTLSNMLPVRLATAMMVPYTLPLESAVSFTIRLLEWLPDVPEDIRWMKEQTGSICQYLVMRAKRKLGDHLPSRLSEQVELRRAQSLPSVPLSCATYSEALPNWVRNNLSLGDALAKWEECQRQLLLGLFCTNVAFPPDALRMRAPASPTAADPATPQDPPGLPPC
# Procedure: All synthesized test compounds were screened for their efficiency to inhibit ATGL activity in vitro in an assay using radiolabelled triolein as substrate.[20] As ATGL cannot be purified, the assays were performed with COS7-cell lysates from cells overexpressing recombinant murine ATGL. For the determination of the IC50-value inhibitors were administered with increasing concentrations to the enzyme and its substrate. To determine the ATGL-inhibition efficiency at 200 μM (I200), 200 μM inhibitor was administered to the enzyme and its substrate.
# For the determination of TG hydrolase activity cell lysates of COS-7 cells overexpressing recombinant murine ATGL were used. Therefore, monkey embryonic kidney cells (Cos-7; ATCC CRL-1651) were cultivated in Dulbeccos modified eagles medium (DMEM, GIBCO, Invitrogen Corp., Carlsbad, CA), containing 10% fetal calf serum (FCS, Sigma–Aldrich) and antibiotics (100 IU/mL penicillin and 100 μg/mL streptomycin) at standard conditions (37 °C, 5% CO2, 95% humidified atmosphere). Cells were transfected with 1 μg DNA complexed to Metafectene (Biontex GmbH, Munich, Germany) in serum free DMEM. After 4 h the medium was replaced by DMEM supplemented with 10% FCS. For the preparation of cell lysates, cells were washed with 1× phosphate buffered saline, collected using a cell scraper, and disrupted in buffer A (0.25 M sucrose, 1 mM EDTA, 1 mM dithiothreitol, 20 μg/mL leupeptine, 2 μg/mL antipain, 1 μg/mL pepstatin, pH 7.0) by sonication (Virsonic 475, Virtis, Gardiner, NJ). Nuclei and unbroken cells were removed by centrifugation (1000×g, 4 °C, for 10 min). Protein concentration of the cell lysates were determined by Bio-Rad protein assay according to the manufacturer’s protocol (Bio-Rad 785, Bio-Rad Laboratories, Munich, Germany), using BSA as standard.
# The triolein (TO) substrate was prepared as described. […] In brief, 330 μM triolein (40,000 cpm/nmol) (GE Healthcare) was emulsified with 45 μM phosphatidylcholine/phosphatidylinositol (3:1) (Sigma) in 100 mM potassium phosphate buffer (pH 7.0) by sonication (Virsonic 475, Virtis) and was adjusted to 5% (w/v) fatty acid free bovine serum albumin (BSA, Sigma). 100 μL (20 μg protein) cell lysate or 2 μl purified recombinant LPL (Sigma–Aldrich) were incubated with 100 μL TO substrate in the presence or in the absence of inhibitors in a water bath for 1 h at 37 °C. After incubation, the reaction was terminated by adding 3.25 mL of methanol/chloroform/heptane (10:9:7) and 1 mL of 0.1 M potassium carbonate, 0.1 M boric acid (pH 10.5). After centrifugation (800 g, 15 min), the radioactivity in 1 mL of the upper phase was determined by liquid scintillation counting.
# [1] = test system: AML-12 mouse hepatocytes cells; test: Tox 4 toxicity test (neutral red viability); format: cell-based; details: 1, 10, 100, 200 µM inhibitor
# Procedure: Fig. S3: Toxicity test of inhibitor 1h using Tox 4-test with AML-12 mouse hepatocytes cells […]
# (§5) Lipolysis of isolated WAT organ cultures - Gonadal fat pads of wild-type, ATGL deficient (ATGL-ko), and HSL deficient (HSL-ko) mice were surgically removed and washed several times with PBS.
# (§6) Tissue pieces (~15 mg) were preincubated in DMEM containing 0, 10, 100, and 200 µM inhibitors for 8 h at C37°C, 5% CO2, 95 % humidified atmosphere. Thereafter, the medium was replaced by DMEM containing 2 % BSA (fatty acid-free) and 0, 10, 100, and 200 µM inhibitors, and incubated for another 60 min at 37°C. Then, aliquots of the medium were removed and analyzed for FA and glycerol content using commercial kits (HR Series NEFA-HR(2), WAKO Diagnostics, Neuss, Germany; Sigma, St.
# Louis, MO). […]
# viability assays, cells were seeded at an initial density of […] cells per well in 12-well plates and cultured under standard conditions for 24 hours. […] After solubilization for 10 min at room temperature absorbance was measured at 540 nm.
# Determination of MG hydrolase activity. Monoacylglycerol hydrolase activities were determined using recombinant, purified mMGL and rac-1-(3)-oleoylglycerol as substrate as described (Taschler, U. et al. Monoglyceride lipase deficiency in mice impairs lipolysis and attenuates diet-induced insulin
# [2] = target: T2, monoglyceride lipase (MGL) (Mus musculus, UniProt O35678); test: MG hydrolase activity with recombinant purified mMGL; format: biochemical; details: 100 µM compound
# T2 sequence (O35678 1-303): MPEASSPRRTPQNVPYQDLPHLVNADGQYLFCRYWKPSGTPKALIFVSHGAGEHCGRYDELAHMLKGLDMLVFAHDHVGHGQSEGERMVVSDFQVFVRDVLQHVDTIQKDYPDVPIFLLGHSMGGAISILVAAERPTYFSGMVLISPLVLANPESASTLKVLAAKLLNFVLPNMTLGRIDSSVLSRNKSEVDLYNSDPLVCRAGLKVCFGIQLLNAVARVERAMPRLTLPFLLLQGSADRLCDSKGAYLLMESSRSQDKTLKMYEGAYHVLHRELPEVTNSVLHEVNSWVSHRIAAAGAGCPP
# Procedure: as §1, §2, §3, §4
# Fig S2. LPL (left) and Monoglyceride hydrolase (MGH) (right) activities in the absence or presence of 100 µM compound 1h.
# (§7) (also on this page, place not known: µmol glycerol/h*mg protein nmol FFA/ml/min nmol FFA/h*mg nmol FFA/h*mg) […]
# as §5
# Tissue pieces (~15 mg) were preincubated in DMEM containing 0, 10, 100, and 200 µM inhibitors for 8 h at C37°C, 5% CO2, 95 % humidified atmosphere. […] Then, aliquots of the medium were removed and analyzed for FA and glycerol content using commercial kits (HR Series NEFA-HR(2), WAKO Diagnostics, Neuss, Germany; Sigma, St. […]
# viability assays, cells were seeded at an initial density of […] cells per well in 12-well plates and cultured under standard conditions for 24 hours. […] After solubilization for 10 min at room temperature absorbance was measured at 540 nm. […]
# [3] = test system: WAT (white adipose tissue) organ cultures; test: Lipolysis of isolated WAT organ cultures of wild-type, ATGL-ko and HSL-ko mice (FA release); format: cell-based; details: for FA release (lipolysis): 0, 10, 100, 200 µM inhibitor, fat pads of wt, ATGL-ko, HSL-ko mice; for selectivity between ATGL and HSL: lipolysis similarly decreased in ATGL and HSL deficient adipose tissue
# From the text: As the hydrazone moiety is regarded as a problematic molecular group due to its metabolic instability resulting in toxic side products,[12] we prepared compound 8 which can be regarded as a variant of 1a missing one nitrogen atom (Scheme 5). […] Taken together these efforts have shown that the hydrazone moiety is an essential element of the biological activity of the hit compound 1a and could not be replaced by the most obvious structural isosteres. In order to further characterize our hit compound 1a and best inhibitor 1h, these compounds were tested for ATGL- and HSL-selectivity by the determination of lipolysis in WAT (white adipose tissue) organ cultures of wild-type, ATGL-ko, and HSL-ko mice. […]
# µM Inhibitor µM Inhibitor […]
# as §7, §5, §6
# Louis, MO). For protein determinations, fat pads were washed extensively with PBS and lysed in 0.3 […]
# U. et al. Monoglyceride lipase deficiency in mice impairs lipolysis and attenuates diet-induced insulin
SMILES,inhibition of lipoprotein lipase (lipoprotein lipase),inhibition at 200 µM (murine ATGL) [%],IC50 (murine ATGL) [µM],toxicity (Tox 4 toxicity test) [1],inhibition of monoglyceride lipase (MGL) [2],melting point [°C],FA release (lipolysis) [3],selectivity between ATGL and HSL [3]
"Oc1ccc(/C=N/N2CCN(c3ccccc3)CC2)c(O)c1 [Compound 1h, (E)-4-(4-Phenylpiperazin-1-ylimino)methylbenzene-1,3-diol]",does not inhibit,94,10,toxic; also recorded: intrinsic toxicity,does not inhibit,183 to 184,dose dependent reduction of FA release,no selectivity; also recorded: limited specificity
"Oc1ccc(/C=N/N2CCN(c3ccccc3)CC2)cc1O [Compound 1a, (E)-4-((4-Phenylpiperazin-1-ylimino)methyl)benzene-1,2-diol]",–,69,110,–,–,180,dose dependent reduction of FA release,no selectivity
